According to patent publication US4521335A, “Aglycone and pseudo-aglycones of the AAD 216 antibiotics” (SmithKline Beckman Corporation, priority 1984, dated 1985):
Converted amounts (≈) assume the structure as drawn.

Columns and labels:
Staph. aureus SK & F 910 = assay: MIC, standard microtiter assay; type: cell-based
Strep. faecilis HH34358 = assay: MIC, standard microtiter assay; type: cell-based
[1] = system: Proteus mirabilis SK & F 444; assay: MIC, standard microtiter assay; type: cell-based
[2] = system: E. coli 12140 (SK & F 809); assay: MIC, standard microtiter assay; type: cell-based; conditions: Escherichia coli
[3] = system: Pseudomonas aeruginosa HH63; assay: MIC, standard microtiter assay; type: cell-based
[4] = system: Proteus morgani SK & F 179; assay: MIC, standard microtiter assay; type: cell-based
Providencia SK & F 276 = assay: MIC, standard microtiter assay; type: cell-based
[5] = system: Enterobacter cloacae HH31254; assay: MIC, standard microtiter assay; type: cell-based
[6] = system: Staph. epidermidis SK & F 2479; assay: MIC, standard microtiter assay; type: cell-based; conditions: Staphylococcus epidermidis
Staph. aureus SK & F 674 = assay: MIC, standard microtiter assay; type: cell-based; conditions: Staphylococcus aureus
[7] = system: Staph. aureus SK & F 2666; assay: MIC, standard microtiter assay; type: cell-based; conditions: Staphylococcus aureus
[8] = system: Staph. aureus SK & F 2677; assay: MIC, standard microtiter assay; type: cell-based; conditions: Staphylococcus aureus
[9] = system: Staph. aureus SK & F 2682; assay: MIC, standard microtiter assay; type: cell-based; conditions: Staphylococcus aureus
[10] = system: Staph. aureus SK & F 2736; assay: MIC, standard microtiter assay; type: cell-based; conditions: Staphylococcus aureus
[11] = system: Staph. aureus SK & F 2776; assay: MIC, standard microtiter assay; type: cell-based; conditions: Staphylococcus aureus
[12] = system: Staph. aureus SK & F 2777; assay: MIC, standard microtiter assay; type: cell-based; conditions: Staphylococcus aureus
[13] = system: Staph. aureus SK & F 2613; assay: MIC, standard microtiter assay; type: cell-based; conditions: Staphylococcus aureus
[14] = system: Staph. aureus SK & F 2615; assay: MIC, standard microtiter assay; type: cell-based; conditions: Staphylococcus aureus
Staph. aureus SK & F 675 = assay: MIC, standard microtiter assay; type: cell-based; conditions: Staphylococcus aureus
[15] = system: Staph. aureus SK & F 2614; assay: MIC, standard microtiter assay; type: cell-based; conditions: Staphylococcus aureus
[16] = system: Staph. aureus SK & F 2620; assay: MIC, standard microtiter assay; type: cell-based; conditions: Staphylococcus aureus
[17] = system: Staph. aureus SK & F 2621; assay: MIC, standard microtiter assay; type: cell-based; conditions: Staphylococcus aureus
[18] = system: Staph. aureus SK & F 2594; assay: MIC, standard microtiter assay; type: cell-based; conditions: Staphylococcus aureus
[19] = system: Staph. aureus SK & F 2593; assay: MIC, standard microtiter assay; type: cell-based; conditions: Staphylococcus aureus
[20] = system: Staph. aureus SK & F 2592; assay: MIC, standard microtiter assay; type: cell-based; conditions: Staphylococcus aureus
[21] = system: Staph. aureus SK & F 2595; assay: MIC, standard microtiter assay; type: cell-based; conditions: Staphylococcus aureus
[22] = system: Staph. aureus SK & F 2596; assay: MIC, standard microtiter assay; type: cell-based; conditions: Staphylococcus aureus
[23] = system: Staph. aureus SK & F 2597; assay: MIC, standard microtiter assay; type: cell-based; conditions: Staphylococcus aureus
B. fragilis H145 = assay: MIC, standard microtiter assay; type: cell-based; conditions: Bacteroides fragilis
B. fragilis SK & F 3060 = assay: MIC, standard microtiter assay; type: cell-based; conditions: Bacteroides fragilis
[24] = system: Fusobacterium nucleatum ATCC 25586; assay: MIC, standard microtiter assay; type: cell-based
[25] = system: Clostridium perfringens MCP-1; assay: microbe, parasite or virus in culture; type: cell-based; conditions: MCP1
C. difficile SK & F 3091 = assay: MIC, standard microtiter assay; type: cell-based; conditions: Clostridioides difficile
C. difficile SK & F 3092 = assay: MIC, standard microtiter assay; type: cell-based; conditions: Clostridioides difficile
C. difficile SK & F 3096 = assay: MIC, standard microtiter assay; type: cell-based; conditions: Clostridioides difficile
C. difficile SK & F 3098 = assay: MIC, standard microtiter assay; type: cell-based; conditions: Clostridioides difficile
[26] = system: Staph. aureus SK & F 209P; assay: MIC, standard microtiter assay; type: cell-based; conditions: Staphylococcus aureus
[27] = system: Strep. faecalis SK & F 34358; assay: MIC, standard microtiter assay; type: cell-based; conditions: Enterococcus faecalis
[28] = system: Bacteroides Fragilis ATCC; assay: MIC, standard microtiter assay; type: cell-based
[29] = system: C. perfringens SK & F 2769; assay: microbe, parasite or virus in culture; type: cell-based; conditions: Clostridium perfringens
Staph. aureus HH 127 = assay: in vivo activity against intraperitoneal infections in mice; set-up: species or system mice infected with Staph. aureus; conditions: Staphylococcus aureus, HH127, sc
[30] = system: inoculum (rumen cannula filtrate); assay: rumen in vitro model, growth promotant activity; conditions: experiment III; for GLU (% Control): glucose; for LYS (% Control): lysine; for Propionate % (% Control): propionate as percentage of total VFA; for VFA (% Control): total volatile fatty acids

SMILES: CN[C@H](CC(C)C)C(=O)N[C@H]1C(=O)N[C@@H](CC(N)=O)C(=O)N[C@H]2C(=O)N[C@H]3C(=O)N[C@H](C(=O)N[C@H](C(=O)O)c4cc(O)cc(O)c4-c4cc3ccc4O)[C@H](O)c3ccc(c(Cl)c3)Oc3cc2cc(c3O[C@@H]2O[C@H](CO)[C@@H](O)[C@H](O)[C@H]2O[C@H]2C[C@](C)(N)[C@H](O)[C@H](C)O2)Oc2ccc(cc2Cl)[C@H]1O [Vancomycin, vancomycin]
- MIC (Staph. aureus SK & F 910; Staphylococcus aureus): 1.6 µg/mL (≈ 1.1 µM)
- MIC (Staph. aureus SK & F 910; Table A, Staph. aureus SK & F 910): 1.6 µg/mL (≈ 1.1 µM)
- MIC (Staph. aureus SK & F 910; Table E, Staph. aureus SK & F 910): 1.6 µg/mL (≈ 1.1 µM)
- MIC (Strep. faecilis HH34358): 3.1 µg/mL (≈ 2.14 µM)
- MIC [1]: 100 µg/mL (≈ 69 µM)
- MIC [2]: 100 µg/mL (≈ 69 µM)
- MIC [3]: > 100 µg/mL
- MIC [4]: > 100 µg/mL
- MIC (Providencia SK & F 276): > 100 µg/mL
- MIC [5]: > 100 µg/mL
- MIC ([6]; Table A): 1.6 µg/mL (≈ 1.1 µM)
- MIC ([6]; Table E): 3.1 µg/mL (≈ 2.14 µM)
- MIC (Staph. aureus SK & F 674): 1.6 µg/mL (≈ 1.1 µM)
- MIC [7]: 1.6 µg/mL (≈ 1.1 µM)
- MIC [8]: 1.6 µg/mL (≈ 1.1 µM)
- MIC [9]: 1.6 µg/mL (≈ 1.1 µM)
- MIC [10]: 1.6 µg/mL (≈ 1.1 µM)
- MIC [11]: 1.6 µg/mL (≈ 1.1 µM)
- MIC [12]: 0.8 µg/mL (≈ 0.552 µM)
- MIC [13]: 1.6 µg/mL (≈ 1.1 µM)
- MIC [14]: 3.1 µg/mL (≈ 2.14 µM)
- MIC (Staph. aureus SK & F 675; Table C, Methicillin Resistant): 1.6 µg/mL (≈ 1.1 µM)
- MIC (Staph. aureus SK & F 675; Table E): 3.1 µg/mL (≈ 2.14 µM)
- MIC [15]: 1.6 µg/mL (≈ 1.1 µM)
- MIC [16]: 3.1 µg/mL (≈ 2.14 µM)
- MIC [17]: 1.6 µg/mL (≈ 1.1 µM)
- MIC [18]: 1.6 µg/mL (≈ 1.1 µM)
- MIC [19]: 1.6 µg/mL (≈ 1.1 µM)
- MIC [20]: 3.1 µg/mL (≈ 2.14 µM)
- MIC [21]: 1.6 µg/mL (≈ 1.1 µM)
- MIC [22]: 3.1 µg/mL (≈ 2.14 µM)
- MIC [23]: 3.1 µg/mL (≈ 2.14 µM)
- MIC (B. fragilis H145): 32 µg/mL (≈ 22.1 µM)
- MIC (B. fragilis SK & F 3060): 32 µg/mL (≈ 22.1 µM)
- MIC ([24]; Fusobacterium nucleatum, ATCC25586): 32 µg/mL (≈ 22.1 µM)
- MIC ([24]; Table F, Fusobacterium nucleatum ATCC 25586): 32 µg/mL (≈ 22.1 µM)
- MIC [25]: 0.5 µg/mL (≈ 0.345 µM)
- MIC (C. difficile SK & F 3091): 2 µg/mL (≈ 1.38 µM)
- MIC (C. difficile SK & F 3092; Table D, Anaerobes): 2 µg/mL (≈ 1.38 µM)
- MIC (C. difficile SK & F 3092; Table F): 0.5 µg/mL (≈ 0.345 µM)
- MIC (C. difficile SK & F 3096): 2 µg/mL (≈ 1.38 µM)
- MIC (C. difficile SK & F 3098): 2 µg/mL (≈ 1.38 µM)
- MIC [26]: 1.6 µg/mL (≈ 1.1 µM)
- MIC [27]: 3.1 µg/mL (≈ 2.14 µM)
- MIC [28]: > 32 µg/mL
- MIC [29]: 0.5 µg/mL (≈ 0.345 µM)
- ED50 (Staph. aureus HH 127; i.p. infection 46.8 LD50's Staph. aureus HH 127, s.c. 1 and 5 hours post infection): 1.56 mg/kg
- ED50 (Staph. aureus HH 127; second test, similar protocol, s.c.): 1.92 mg/kg
- GLU (% Control) ([30]; 0.5 ppm): 17 % Control
- LYS (% Control) ([30]; 0.5 ppm): 83 % Control
- Propionate % (% Control) ([30]; 0.5 ppm): 105 % Control
- VFA (% Control) ([30]; 0.5 ppm): 97 % Control
- GLU (% Control) ([30]; 5.0 ppm): 165 % Control
- LYS (% Control) ([30]; 5.0 ppm): 85 % Control
- Propionate % (% Control) ([30]; 5.0 ppm): 130 % Control
- VFA (% Control) ([30]; 5.0 ppm): 108 % Control
- GLU (% Control) ([30]; 50.0 ppm): 189 % Control
- LYS (% Control) ([30]; 50.0 ppm): 97 % Control
- Propionate % (% Control) ([30]; 50.0 ppm): 127 % Control
- VFA (% Control) ([30]; 50.0 ppm): 107 % Control
